The values below are quoted from earlier work in patent EP0986632B1, “DELIVERY SYSTEMS” (THE PROCTER & GAMBLE COMPANY, priority 1997, dated 1998).

For this data set the following is noted: 25°C; from M. L. Tobe, Adv. Inorg Bioinorg. Mech. (1983), 2, Table 1 at page 17.
Regarding oxalate, the “base hydrolysis rates (kOH)” value is 0.00025 M⁻¹ s⁻¹. With `CC(=O)O` [acetate], the “base hydrolysis rates (kOH)” value is 0.00096 M⁻¹ s⁻¹. On to `N#CS` [NCS^-], for which the “base hydrolysis rates (kOH)” value was 0.0005 M⁻¹ s⁻¹. Consider `O=CO` [formate], for which the “base hydrolysis rates (kOH)” value is 0.00058 M⁻¹ s⁻¹.
